# Experimental data published in patent publication US20110311601A1, “ANTIMICROBIAL MEDICAL DEVICES” (priority 2010, published 2011).
# Where no end group is shown, it is not given here.
# How the values were obtained:
# Test in all cases: micro-dilution assay (MBC, LD90)
# [1] = system: Stahylococcus aureus ATCC 12600; format: cell-based, Staphylococcus aureus
# Protocol: The anti-bacterial activity of hβD2 was tested by a micro-dilution assay. Bacteria and fungi were streaked from a glycerol stock onto a Brain Heart Infusion (BHI) agar plate (3.7% w/v BHI Bouillon, 1.5% w/v Agar), grown overnight at 37° C. and 30° C., respectively and subsequently used to inoculate 40 ml of 3.7% w/v BHI Bouillon without any antibiotics in 100 ml flasks. Fresh cells were harvested by centrifugation at 16000 rpm for 10 min and washed twice with 10 mM sodium phosphate buffer, pH 7.2. The optical density was adjusted to 10^4 cells/ml. For anti-bacterial testing hβD2 was incubated in one well of a microtiter plate containing 100 μl of the bacterial suspension. Therefore, ten microlitres of hβD2 solution with a range of final concentrations tested from 0.0125 up to and including 100 mg/l was added to the bacterial suspension and incubated at 37° C. and 30° C., respectively for 2 h before colony forming units were determined. Colony forming units (CFU) were determined after plating 100 μl of a 1:100 dilution of the bacterial suspension on petri dishes with BHI medium and incubating them overnight at 37° C. For every group of the hβD2 added samples and the controls, 5 independent anti-bacterial assays were performed. A control (NC) of bacterial growth was examined for every independent assay. […]
# [2] = system: Acinetobacter Genosp. 10 ATCC 17924; format: cell-based
# In short: (§1)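 hβD2, final 0.0125–100 mg/l, 2 h in 10 mM Na phosphate pH 7.2 with 10^4 cells/ml; 37° C bacteria, 30° C fungi. Read-out: CFU on BHI plates overnight, normalised to no-peptide control. MBC 99.9% kill; LD90 90% kill; n = 5.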
# [3] = system: Acinetobacter lwoffii ATCC 15309; format: cell-based
# In short: as §1
# [4] = system: Actinobacillus actinommycetemcomitans NCTC 10979; format: cell-based
# In short: as §1
# [5] = system: Candida glabrata BK 9570/02 (wild-type); format: cell-based
# In short: as §1
# [6] = system: Candida glabrata UR 5836/02 (wild-type); format: cell-based
# In short: as §1
# [7] = system: Candida parapsilosis ATCC 90018; format: cell-based
# In short: as §1
# [8] = system: E. coli (ESBL 1) UR 2884/99 (wild-type); format: cell-based
# In short: as §1
# [9] = system: E. coli (ESBL 9) UR 2217/03 (wild-type); format: cell-based
# In short: as §1
# [10] = system: Enterococcus faecium (VRE) Ulm 68 (wild-type); format: cell-based
# In short: as §1
# [11] = system: Helicobacter pylori ATCC 49503; format: cell-based
# In short: as §1
# [12] = system: Klebsiella pneumoniae (ESBL) CF 7 (wild-type); format: cell-based
# In short: as §1
# [13] = system: Klebsiella pneumoniae ATCC 13883; format: cell-based
# In short: as §1
# [14] = system: Proteus mirabilis UR 1536/03 (wild-type); format: cell-based
# In short: as §1
# [15] = system: Proteus mirabilis UR 1792/03 (wild-type); format: cell-based
# In short: as §1
# [16] = system: Staphylococcus aureus ATCC 33593 (MRSA); format: cell-based
# In short: as §1
substance,measurement,setting,value
"human β-defensin-2 (GIGDPVTCLKSGAICHPVFCPRRYKQIGTCGLPGTKCCKKP; ends and bridges not checked; cysteine pairing not given here) [hβD2, recombinant hβD2]",LD 90 = μg/ml 90% killing,[1],25 µg/mL
same,MBC = μg/ml 99.9% killing,[1],100 µg/mL
same,LD 90 = μg/ml 90% killing,[2],0.39 µg/mL
same,MBC = μg/ml 99.9% killing,[2],1.56 µg/mL
same,LD 90 = μg/ml 90% killing,[3],0.39 µg/mL
same,MBC = μg/ml 99.9% killing,[3],0.78 µg/mL
same,LD 90 = μg/ml 90% killing,[4],100 µg/mL
same,MBC = μg/ml 99.9% killing,[4],>100 µg/mL
same,LD 90 = μg/ml 90% killing,[5],>100 µg/mL
same,MBC = μg/ml 99.9% killing,[5],>100 µg/mL
same,LD 90 = μg/ml 90% killing,[6],6.25 µg/mL
same,MBC = μg/ml 99.9% killing,[6],50 µg/mL
same,LD 90 = μg/ml 90% killing,[7],12.5 µg/mL
same,MBC = μg/ml 99.9% killing,[7],25 µg/mL
same,LD 90 = μg/ml 90% killing,[8],3.125 µg/mL
same,MBC = μg/ml 99.9% killing,[8],12.5 µg/mL
same,LD 90 = μg/ml 90% killing,[9],12.5 µg/mL
same,MBC = μg/ml 99.9% killing,[9],25 µg/mL
same,LD 90 = μg/ml 90% killing,[10],100 µg/mL
same,MBC = μg/ml 99.9% killing,[10],>100 µg/mL
same,LD 90 = μg/ml 90% killing,[11],12.5 µg/mL
same,MBC = μg/ml 99.9% killing,[11],50 µg/mL
same,LD 90 = μg/ml 90% killing,[12],25 µg/mL
same,MBC = μg/ml 99.9% killing,[12],50 µg/mL
same,LD 90 = μg/ml 90% killing,[13],12.5 µg/mL
same,MBC = μg/ml 99.9% killing,[13],25 µg/mL
same,LD 90 = μg/ml 90% killing,[14],100 µg/mL
same,MBC = μg/ml 99.9% killing,[14],>100 µg/mL
same,LD 90 = μg/ml 90% killing,[15],3.125 µg/mL
same,MBC = μg/ml 99.9% killing,[15],12.5 µg/mL
same,LD 90 = μg/ml 90% killing,[16],100 µg/mL
same,MBC = μg/ml 99.9% killing,[16],>100 µg/mL
